Values joined by “and” are separate entries in the source; they are usually repeats but may differ in a detail not shown here. Equal entries are not always repeated. Active and inactive are the calls of the source.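 Rule for the calls: active = EC50 no more than a set limit of log units above the highest dose; inactive = the rest.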
Molecular target: S. pyogenes SKKanGAS, kanamycin survival, BacTiterGlo, 6 h
Assay: S. pyogenes SKKanGAS kanamycin growth inhibitors – SKKanGAS strain, luminescence, dose confirmation, streptokinase promoter inhibitor project, dose response (AID 1902);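 note: lower survival reflects blocked streptokinase promoter driving kanamycin resistance gene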

Row | SMILES | EC50
1 | N=C1SCC(=O)N1c1ncc(Cc2cccc(Cl)c2)s1 | 0.145 µM
2 | OC(COc1ccc2ccccc2c1Br)Cn1cnc(-c2ccccc2)c1 (stereo not given) | 5.71 µM
3 | NC(N)=N/N=C/c1ccc(N(c2ccccc2)c2ccccc2)cc1 | 2.06 µM
4 | O=C(c1cc(-c2cccs2)nc2ccccc12)N1CCN(c2ccccc2O)CC1 | 13.4 µM
5 | COc1ccc(CN2C(=O)c3ccccc3C(/C=N/OCc3ccc(Cl)cc3)C2=O)cc1 (stereo not given) | 1.11 µM
6 | COc1ccc(Sc2ccc(NC(=O)c3ccccc3Cl)cc2C#N)cc1 | 2.51 µM
7 | Cc1ccc2[nH]c(O)c(N=NC(=O)c3ccc(NS(=O)(=O)c4cccs4)cc3)c2c1 | 1.25 µM
8 | COc1ccc(O)c(-c2cc(-c3cccc(Br)c3)n[nH]2)c1 | 9.97 µM
9 | CC(=O)N(C)c1ccc(OCC(O)Cn2c3ccc(Cl)cc3c3cc(Cl)ccc32)cc1 (stereo not given) | 3.35 µM
10 | COc1ccccc1N=C1NC(=O)/C(=C/c2ccc(N(C)C)cc2)S1 | 6.08 µM
11 | COc1ccc(C(NC(C)=O)c2cc(Cl)c3cccnc3c2O)cc1OC (stereo not given) | 5.2 µM
12 | Cn1c(O)c(N=Nc2nc(-c3ccccc3)cs2)c2ccccc21 | 1.2 µM
13 | CCCc1nnc(NC(=O)c2c(O)c3cccc4c3n(c2=O)CCC4)s1 | 6.91 µM
14 | O=C(N/N=C/c1ccccc1O)c1cccc2ccccc12 | 3.08 µM
15 | CC(=O)OCCCNc1cc(Sc2nc3ccccc3s2)c2nonc2c1[N+](=O)[O-] | 2.43 µM
16 | Cc1cc(C)c(-c2noc(C(=O)OC(C)(C)C)c2C(=O)OC(C)(C)C)c(C)c1 | 3.58 µM
17 | CC1=C(C#N)c2nc(N)c(C#N)c(C)c2/C1=C\c1ccc(C)cc1 | 6.18 µM
18 | COc1ccc(OC)c(N=Cc2c(O)n(Cc3ccccc3)c(=S)[nH]c2=O)c1 | > 15 µM (inactive)
19 | CC1(C(=O)NC(=S)NNC(=O)c2ccncc2)CCCCC1 | 1.1 µM
20 | COCCNC(=O)c1c(NC(=O)c2ccco2)n(Cc2ccccc2)c2nc3ccccc3nc12 | 8.51 µM
21 | O=C1C(=O)c2ccccc2-c2ccccc21 | 1.26 µM
22 | CCNC(=O)c1c(NC(=O)c2cc(-c3cc(C)ccc3O)n[nH]2)sc2c1CCCC2 | 2.44 µM
23 | CCCCCCCCCCCCCCCCn1cc[n+](C)c1 | 1.9 µM and 2.05 µM
24 | O=C(CSc1nc(Nc2ccccc2)nc(N2CCOCC2)n1)Nc1cc(Cl)ccc1O | 4.13 µM
25 | Cc1ccc(C)c(-c2nnc(NC(=O)COc3ccccc3)o2)c1 | 1.7 µM
26 | COc1cc(/C=N/NC(=O)c2cc(-c3c(C)nn(-c4ccccc4)c3C)n[nH]2)ccc1O | 2.97 µM
27 | COc1cccc(/C=C/c2ccc3cccc(O)c3n2)c1OC | 0.887 µM

Row | SMILES | EC50
28 | O=C(CSc1ccc(Cl)cc1)NC1=NN(c2ccccc2)C(=O)C1 | 5.54 µM
29 | Clc1ccccc1Sc1ccc(-c2ccccn2)s1 | 5.48 µM
30 | COc1ccc(C(=O)CC(=O)C(=O)Nc2ccccc2C(F)(F)F)cc1 | 2.05 µM
31 | CCCCCCCCCCCCC(NC(C)=O)(C(=O)OCC)C(=O)OCC | 6.05 µM
32 | c1ccc(-c2nc(-c3nccc4ccccc34)oc2-c2ccccc2)cc1 | 3.52 µM
33 | COc1ccc(N2CCN(C(=S)NC(=O)c3cccs3)CC2)c([N+](=O)[O-])c1 | 6.21 µM
34 | COc1ccc(OCC(=O)NNC(=S)NC(=O)C2CC2)cc1 | 4.11 µM
35 | CCCCOc1ccc(-c2c(C#N)c(N)nc(SCC(N)=O)c2C#N)cc1 | 4.61 µM
36 | Cc1ccc2c(c1)C(=O)CC1(CCC(C(C)(C)C)CC1)O2 (stereo not given) | 3.01 µM
37 | CC(Oc1ccccc1)C(=O)NC1C(=O)N2C1SC(C)(C)C2C(=O)O (stereo not given) | 0.114 µM
38 | Fc1ccc(-c2csc3ncnc(N4CCc5ccccc5C4)c23)cc1 | 2.73 µM
39 | O=C(Nc1nc(-c2ccccn2)cs1)Nc1ccc(F)cc1F | 1.24 µM
40 | Oc1nc(Nc2ccc(F)cc2)sc1/C=C1\C=Nc2ccccc21 | 8.88 µM
41 | CC1C/C(=N\NC(=S)NCc2ccccc2)CC(C)(C)C1 (stereo not given) | 3.96 µM
42 | FC(F)(F)c1cc(CCN2C(=S)NC[C@@H]2CC2CCCCC2)cc(C(F)(F)F)c1 | 3.7 µM
43 | Oc1c(CN2CCN(c3ccc(F)cc3)CC2)cc(Cl)c2cccnc12 | 1.01 µM
44 | Oc1c(Cl)cc(Cl)cc1C(C#Cc1ccccc1)N1CCOCC1 (stereo not given) | 12.2 µM
45 | CC1CCc2c(sc3nc(C4CC4)nc(N4CCN(C(=O)c5ccco5)CC4)c23)C1 (stereo not given) | 3.84 µM
46 | CC(=O)NNC(=S)NC(=O)C(c1ccccc1)c1ccccc1 | 0.853 µM
47 | CCCCNc1c(-c2ccc(SC(C)CC)c(OC)c2)nc2ccc(C)cn12 (stereo not given) | 3.46 µM
48 | Nc1c(S(=O)(=O)c2ccccc2)c2nc3ccccc3nc2n1/N=C/c1cccc(O)c1 | 5.22 µM
49 | O=C(N/N=C/c1c[nH]c2ccccc12)c1cc(-c2ccc(-c3ccccc3)cc2)n[nH]1 | 2.89 µM
50 | c1ccc(-c2nc(C3CCCCC3)c3ccccc3n2)cc1 | 3.87 µM
51 | O=S(=O)(Nc1ccc(O)c(Sc2nc3ccccc3s2)c1)c1cccc2ccccc12 | 3.09 µM
52 | O=C(OCc1ccccc1)c1cccc(-c2nnn(Cc3ccccc3)n2)c1 | 2.73 µM
53 | Cc1ccc(NC(=O)C(OC(=O)c2ccc(NC(N)=O)cc2)c2ccccc2)cc1Cl (stereo not given) | 6.52 µM
54 | C[C@@H]1CC[C@@]2(OC1)O[C@H]1C[C@H]3[C@@H]4CC=C5C[C@@H](O)[C@H](O)C[C@]5(C)C4CC[C@]3(C)[C@H]1[C@@H]2C (stereo not given in full) | 4.12 µM

Row | SMILES | EC50
55 | CCCCCCCCCc1nc2sc3c(c2c(=O)n1NC(=O)c1ccc([N+](=O)[O-])cc1)CC(C)(C)OC3 | 3.5 µM
56 | COc1ccc(-c2cc3nc(-c4ccccc4)cc(N4CCCC(O)C4)n3n2)cc1 (stereo not given) | 4.3 µM
57 | CCc1ccccc1OCC(=O)Nc1nc(-c2cccnc2)cs1 | 1.05 µM
58 | O=C(Cc1ccccc1)N/N=C/c1ccccn1 | > 15 µM (inactive)
59 | Cc1[nH]n(-c2ccccc2)c(=O)c1N=Nc1ccccc1O | 0.582 µM
60 | CCn1cc(C(=O)O)c(=O)c2cc(F)c(N3CCN(S(=O)(=O)c4ccc(NC(C)=O)cc4)CC3)cc21 | 4.65 µM
61 | O=c1cc2c(nn1Cc1ccc(Cl)cc1Cl)-c1ccccc1CC2 | 5.37 µM
62 | CCCc1cc(=O)n2[nH]c(C)c(-c3ccc(Cl)cc3)c2n1 | 5.81 µM
63 | CCOC(=O)c1ccc(NC(=O)c2nc(S(=O)(=O)Cc3ccccc3)ncc2Cl)cc1 | 9 µM
64 | COc1ccccc1NC(=O)C(=O)NNC(=O)COc1ccc2ccccc2c1 | 2.2 µM
65 | O=c1oc2ccccc2c(O)c1C(c1ccc([N+](=O)[O-])cc1)c1c(O)c2ccccc2oc1=O | 6.3 µM
66 | Cc1cccc(NC(c2ccc(C)s2)c2ccc3ccc(C)nc3c2O)n1 (stereo not given) | 3.9 µM
67 | Fc1ccc(Br)cc1C1C=C(c2ccc(Br)s2)Nc2ncnn21 (stereo not given) | 6.39 µM
68 | CC(Oc1ccc(Cl)cc1)C(=O)NNC(=S)NC(=O)c1ccco1 (stereo not given) | 0.325 µM
69 | O=C(Nc1ccc(N2CCCC2)c(S(=O)(=O)Nc2cccc(C(F)(F)F)c2)c1)c1cccs1 | 3.95 µM
70 | CC(C)C1Nc2c(O)cc(Cl)c([N+](=O)[O-])c2C2C=CCC21 (stereo not given) | 3.1 µM
71 | Cc1cc(Oc2ccc(-c3ccccc3)cc2)nc(N2CCOCC2)n1 | 5.71 µM
72 | Cc1nnc(Sc2cc(NCCCO)c([N+](=O)[O-])c3nonc23)s1 | 7.78 µM
73 | O=C(Cc1csc(NC(=O)Nc2cccc(Cl)c2)n1)NCc1cccnc1 | 4.4 µM
74 | COc1cccc(/C=C/C(=C2/C(=O)N(c3ccccc3)N=C2C)c2ccc(Br)cc2)c1OC | > 15 µM (inactive)
75 | CCN(CC)c1ccc(/C=N/NC(=O)CCC(=O)NCc2ccccc2)c(O)c1 | 3.35 µM
76 | CN(Cc1cnc2nc(N)nc(N)c2n1)c1ccc(C(=O)N[C@@H](CCC(=O)O)C(=O)O)cc1 | 0.61 µM
77 | CC[C@H]1OC(=O)[C@H](C)[C@@H](O[C@H]2C[C@@](C)(OC)[C@@H](O)[C@H](C)O2)[C@H](C)[C@@H](O[C@@H]2O[C@H](C)C[C@H](N(C)C)[C@H]2O)[C@](C)(O)C[C@@H](C)[C@@H]2N[C@@H](COCCOC)O[C@H]([C@H]2C)[C@]1(C)O | < 0.06 µM
78 | Cc1ccc(CN2CN(S(=O)(=O)c3cccs3)c3nc4ccccc4nc32)cc1 | 7.74 µM
79 | Cc1cccc(Cn2nc(C(C)(C)C)cc2C(=O)Nc2ccc(F)cc2)c1 | 3.95 µM
80 | Cc1ccc(O)c(C(=O)CC(=O)c2ccccc2Cl)c1 | 3.52 µM
81 | CCOC(=O)Cc1cc(=O)n2[nH]cc(-c3cccc(Br)c3)c2n1 | 3.56 µM

Row | SMILES | EC50
82 | O=C(Cc1cccs1)Nc1cccc(-c2nc3cc4ccccc4cc3[nH]2)c1 | 4.25 µM
83 | Cc1cc(C)c(S(=O)(=O)/N=C2\C=C(Nc3ccc(C(=O)O)cc3)C(=O)c3ccccc32)c(C)c1 | 1.16 µM
84 | C=C(C)COc1ccc(-c2nc(N)ncc2-c2ccc(Cl)cc2)c(O)c1 | 5.69 µM
85 | COc1ccc(/C=C/c2ccc3cccc(O)c3n2)cc1Br | 0.419 µM
86 | Cc1ccc2[nH]c(C(=O)N/N=C/c3ccccc3O)c(C)c2c1 | 1.67 µM
87 | CC(C)S(=O)(=O)c1csc(NC(=O)Nc2cc(Cl)ccc2Cl)c1Cl | 1.65 µM
88 | NC(=O)NC(=O)CSc1nc2sc(-c3ccccc3)cc2c(=O)n1-c1ccccc1 | 1.18 µM
89 | CCCNC(=O)c1ccc(N2CCC3(CC2)CC(c2ccccc2)=NO3)c(NC(=O)c2ccco2)c1 | 8 µM
90 | Cc1ccccc1NC(=O)NCCCCc1ccccc1 | > 15 µM (inactive)
91 | CCCCC(=O)NNC(=S)NC(=O)C(c1ccccc1)c1ccccc1 | 0.188 µM
92 | CCOc1ccc2c(c1)C(=NNC(=O)c1ccncc1)c1cc(OCC)ccc1-2 | 1.57 µM
93 | COc1ccc(OC)c(/C=N/n2c(-c3n[nH]c4c3CCC4)n[nH]c2=S)c1 | > 15 µM (inactive)
94 | C=CCn1c(COc2ccccc2)nnc1SCC(=O)N/N=C/c1cc(Cl)ccc1O | 3.32 µM
95 | CCCC(=O)NC(c1ccc(Cl)cc1Cl)c1ccc2cccnc2c1O (stereo not given) | 0.912 µM
96 | CC(Oc1ccc(Cl)cc1Cl)C(=O)Nc1ccc(S(=O)(=O)Nc2cnc3ccccc3n2)cc1 (stereo not given) | 3.88 µM
97 | C(=N\Nc1ncnc2sc3c(c12)CCC3)/c1cccs1 | 10.2 µM
98 | Cc1nn(-c2ccccc2)c(C)c1/C=N/NC(=O)c1cc(-c2ccc(Br)s2)[nH]n1 | 4.23 µM
99 | COC(=O)[C@@]12CCCN1[C@H](c1ccc(-c3cccc(Cl)c3)c(OC)c1)[C@H]1C(=O)N(C)C(=O)[C@H]12 | > 15 µM (inactive)
100 | C[C@H]1COC2=C1C(=O)C(=O)c1c2ccc2c1CCCC2(C)C | 3.95 µM
101 | O=C(Nc1nnc(-c2ccco2)o1)c1ccc(Cl)cc1 | 1.21 µM
102 | CC(OC(=O)CC1CCCC1)C(=O)Nc1ccc(S(N)(=O)=O)cc1 (stereo not given) | > 15 µM (inactive)
103 | FC(F)(F)c1ccc(C2[C@H]3CN(Cc4cccnc4)[C@H](c4ccccc4)C34CC2(c2cccnc2)C4)cc1 (stereo not given in full) | 5.15 µM
104 | C/C(=N\NC(=O)COc1ccc(C)cc1C(C)C)c1cc2ccccc2o1 | 11 µM
105 | CC(C)(C)C(=O)N1N=C(c2ccc(NS(C)(=O)=O)cc2)CC1c1cccs1 (stereo not given) | 7.49 µM

Reference: PubChem BioAssay AID1902 (Broad Institute, 2009)
